Results reported in patent publication US10624866B2, “Composition for prevention or treatment of chronic pain comprising Evans blue” (THE INDUSTRY & ACADEMIC COOPERATION IN CHUNGNAM NATIONAL …, priority 2018, dated 2020).

Columns and labels:
[1] = tested on: animal model of SNL neuropathic pain; experiment: von Frey filament test (mechanical allodynia) in spinal nerve ligation (SNL) model of neuropathic pain; type: in vivo, Sprague-Dawley rats
Procedure: 5-week-old male SD white rats (Sprague-Dawley rats, 150 to 180 g) were purchased and were kept in an environment where each of night and day was continuously kept for 12 hours, and the temperature was maintained at 22±2° C. Further, water and feed were freely available for rats, and the rats were fed three or less per cage. At 6 weeks of age after adapted in an experimental environment for 7 days before the experiment, the rats responsive to stimulation of 8 g or more of von Frey filament were only selected, and then the spinal nerve ligation (SNL) procedure was performed thereon, inducing neuropathic pain (NPP). More specifically, after general anesthesia with respiratory anesthesia with isoflurane, the left lumbar (L6) […] was carefully removed for differentiation of the L4 and L5 spinal nerves (FIGS. 1A to 1B), and then the L5 spinal nerve was ligated with a silk suture thread (3-0), and the wound was sutured to prepare an experimental animal model of SNL neuropathic pain (FIGS. 1C to 1D). The analgesic effect of Evans blue of the present disclosure was confirmed by measuring mechanical hyperalgesia using the animal model of neuropathic pain. The von Frey filament test (test for mechanical allodynia) is a method for measuring the degree of mechanical allodynia after animal pain modeling. The rats were placed in an acrylic box disposed on a wire mesh test bench with a mesh size of 2×2 mm and adapted for at least 15 minutes. After the rats became quiet in movement, the pain threshold values (g) of the rat were evaluated using the von Frey filaments (Stoelting, USA) having a thickness of 0.4, 0.6, 1, 2, 4, 6, 8, and 15 g. […] The central part thereof was stimulated with von Frey filaments. When there was a positive reaction, stimulation was performed with weak filaments. When there was no positive reaction, stimulation was performed with strong filaments. As a result, the reduction of the pain threshold for the von Frey filament test on the seventh day after the pain model surgery was the maximum. From the seventh day when the reduction of the pain threshold for the von Frey filament test after the pain model surgery was the maximum, Evans blue (EB) was injected intrathecal injection with a Hamilton syringe, and the hind paw of the […] was stimulated with the von Frey filament to the measure minimum pain threshold. Changes in pain threshold were measured after 2 hours, 1 day, 2 days, 3 days, 5 days, and 7 days. At this time, 10 μl physiological saline was administered to the control group, and Evans blue was administered at various concentrations (5, 15, and 50 μg/10 μl).

[2] = tested on: inhibitory neurons distributed in laminas I and II; experiment: Calretinin immunostaining of spinal cord tissue injected with Evans blue; type: in vivo, white rat; settings: laminas I and II (FIG. 4G, FIGS. 5G to 5I)
[3] = tested on: excitatory neurons located in the dorsal horn of the spinal cord; experiment: vGluT2 immunostaining of spinal cord tissue injected with Evans blue; type: in vivo, white rat; settings: dorsal horn laminas I and II (FIGS. 5D to 5F)
[4] = target: T1, vesicular nucleotide transporter (VNUT) of the dorsal root ganglia (Rattus norvegicus, UniProt P0DX21); experiment: Immunostaining with VNUT antibody after in vivo Evans blue injection, confocal microscopy; set-up: species or system white rat; settings: dorsal root ganglia: axon, axon terminal and cell body; 2nd day after injection (FIGS. 4A to 4C)
T1 construct: examine the expression of VNUT in the dorsal root ganglia and dorsal horn of the spinal cord; from tissue; host or cells: rat dorsal root ganglia and spinal cord (L4 to L6) sections after in vivo Evans blue injection
T1 sequence (P0DX21 1-447): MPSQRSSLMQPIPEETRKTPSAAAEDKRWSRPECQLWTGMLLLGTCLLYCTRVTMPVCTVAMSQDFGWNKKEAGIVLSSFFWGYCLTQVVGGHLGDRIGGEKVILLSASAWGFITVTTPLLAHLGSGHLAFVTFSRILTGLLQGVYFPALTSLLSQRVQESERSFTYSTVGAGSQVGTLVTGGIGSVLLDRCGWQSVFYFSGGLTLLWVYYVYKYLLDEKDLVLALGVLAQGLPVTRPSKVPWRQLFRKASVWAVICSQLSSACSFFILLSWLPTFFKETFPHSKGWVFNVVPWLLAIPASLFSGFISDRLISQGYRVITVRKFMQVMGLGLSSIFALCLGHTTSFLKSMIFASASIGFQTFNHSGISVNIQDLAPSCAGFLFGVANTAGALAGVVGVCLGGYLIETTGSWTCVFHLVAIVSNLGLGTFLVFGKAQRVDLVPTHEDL
Procedure: To verify targeting VNUT of the dorsal root ganglia and dorsal horn of the spinal cord by Evans blue in vivo, VNUT was immune-stained, and Evans blue was administered in vivo to confirm whether it was targeted.
(§1) Specifically, it was immune-stained with VNUT antibody (green) to examine the expression of VNUT in the dorsal root ganglia and dorsal horn of the spinal cord. Evans blue was injected on the 7th day after the pain model surgery. On 2nd day after the injection of Evans blue, the white rat was anesthetized by intraperitoneal injection of sodium pentobarbital (100 mg/Kg). Then the phosphate buffer solution (PBS, pH 7.4) was intracardiac-perfused to entirely remove the blood, followed by perfusion with 4% paraformaldehyde to fix the result. Then, the spinal cord sites (L4 to L6) were carefully taken out, post-fixed in the same fixative overnight, and immersed in a 30% sucrose solution. Then, the tissues obtained by frozen sectioning of the spinal cord at […] were subjected to the normal serum blocking and then incubated overnight at 4° C. with VNUT (1:500; ABN 83; milipore) antibody. The next day, the result was washed with PBS and incubated with the cy2-conjugated secondary antibody (1:400) for 2 hours, and then the nuclear thereof was stained with DAPI. The tissues were attached to a slide glass and photographed using a confocal microscope (Leica, TCS SP8).

[5] = tested on: astrocytes; experiment: GFAP immunostaining of spinal cord tissue injected with Evans blue; type: in vivo, white rat; settings: FIGS. 6D to 6F
[6] = tested on: microglia cells present in the dorsal horn of the spinal cord; experiment: Iba-1 immunostaining of spinal cord tissue injected with Evans blue; type: in vivo, white rat; settings: laminas I to III (FIGS. 6A to 6C)
[7] = tested on: neurons of the dorsal horn in the spinal cord; experiment: NeuN immunostaining of spinal cord tissue injected with Evans blue; type: in vivo, white rat; settings: dorsal horn of the spinal cord (FIGS. 5A to 5C)
Procedure: as §1
To determine whether Evans Blue targeted the neurons of the dorsal horn in the spinal cord, the spinal cord tissue injected with Evans blue was stained with NeuN, a marker for identifying neurons. […]

overlap of Evans blue signal with VNUT expression [4]: overlaps
Structure (SMILES): Cc1cc(-c2ccc(/N=N/c3ccc4c(S(=O)(=O)O)cc(S(=O)(=O)O)c(N)c4c3O)c(C)c2)ccc1/N=N/c1ccc2c(S(=O)(=O)O)cc(S(=O)(=O)O)c(N)c2c1O [Evans blue]
intensity of pain (pain threshold) than before Evans blue treatment (0D) ([1]; 5 μg intrathecal, on the 2nd and 3rd day (p<0.05)): significant increase
intensity of pain (pain threshold) than before Evans blue treatment (0D) ([1]; 15 μg intrathecal, after 2 hours and the 1st day (p<0.05)): significant increase
intensity of pain (pain threshold) than before Evans blue treatment (0D) ([1]; 50 μg intrathecal, after 2 hours and the 1st day (p<0.01), the 2nd day (p<0.001), the 3rd day, the 5th day (p<0.05)): significant increase
intensity of pain (pain threshold) compared to the control group treated with physiological saline ([1]; 50 μg intrathecal, on the 2nd day (p<0.001)): significant increase
analgesic effect on pain (pain threshold, von Frey filament test) ([1]; SNL rats, intrathecal injection on day 7 after surgery, 5, 15 and 50 μg/10 μl, versus control group treated only with physiological saline): overall increased meaningfully
time of peak analgesic effect ([1]; after intrathecal injection, gradually decreased thereafter): 3 days
overlap of calretinin (inhibitory neurons) with Evans blue [2]: did not overlap
targeting of excitatory neurons (vGluT2 stained around cell bodies of neurons targeted by Evans blue) [3]: targeted excitatory neurons
overlap of GFAP (astrocyte marker) signal with Evans blue [5]: did not overlap
overlap of Iba-1 (microglial cell marker) signal with Evans blue signal [6]: partially overlapped
overlap of NeuN (neuron marker) signals with Evans blue [7]: most signals of NeuN, which is a neuron marker, overlapped
